# Source: US20150133426A1, “SUBSTITUTED PYRROLOPYRIMIDINES” (BAYER PHARMA AKTIENGESELLSCHAFT, priority 2012, published 2015)
# Target: T1, human full-length MKNK1 (Homo sapiens, UniProt Q9BUB5, T385D)
# T1 construct: purchased Carna Biosciences 02-145; host or cells: insect cells, baculovirus expression system
# Assay: MKNK1 kinase high ATP assay (TR-FRET)
# Assay type: biochemical
# Details: high ATP (2 mM), 15 min preincubation with enzyme, GST-MKNK1 (T344D)
# Outline: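 GST-tagged full-length human MKNK1 (aa 1-424, T344D), baculovirus-expressed, preincubated 15 min with compound, then reacted 30 min at 22 °C with 2 mM ATP and 0.06 µM biotinylated peptide (final).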
# T1 sequence (Q9BUB5 1-424 isoform Q9BUB5-2 T344D): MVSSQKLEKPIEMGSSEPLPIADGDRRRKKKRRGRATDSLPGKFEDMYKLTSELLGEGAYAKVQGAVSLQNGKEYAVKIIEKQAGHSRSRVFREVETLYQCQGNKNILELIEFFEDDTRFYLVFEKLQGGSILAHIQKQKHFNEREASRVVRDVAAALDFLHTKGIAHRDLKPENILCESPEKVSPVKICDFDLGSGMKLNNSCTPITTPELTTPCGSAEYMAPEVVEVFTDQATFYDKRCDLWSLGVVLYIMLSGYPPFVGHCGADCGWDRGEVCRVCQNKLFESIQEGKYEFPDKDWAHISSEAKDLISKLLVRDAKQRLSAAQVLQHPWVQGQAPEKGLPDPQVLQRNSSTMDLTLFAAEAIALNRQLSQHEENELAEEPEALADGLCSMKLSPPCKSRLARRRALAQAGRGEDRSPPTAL
row,Structure (SMILES),IC50 [nM]
1,"CC(C)Oc1cc(F)ccc1Nc1ncnc2c1c1c(n2C)CCC(C(=O)NCCCS(C)(=O)=O)C1 (racemic) [Example 25, (RS)-4-[(4-Fluoro-2-isopropoxyphenyl)amino]-9-methyl-N-[3-(methylsulfonyl)propyl]-6,7,8,9-tetrahydro-5H-pyrimido[4,5-b]indole-6-carboxamide]",381
2,CC(C)Oc1ccc(Br)cc1Nc1ncnc2[nH]c3c(c12)CCCC3 [Example 127],6270
3,"COP(C)(=O)c1ccc(Nc2ncnc3[nH]c4c(c23)CC(C(=O)NCCCS(C)(=O)=O)CC4)cc1 (racemic) [Example 64, (RS)-Methyl methyl{4-[(6-{[3-(methylsulfonyl)propyl]carbamoyl}-6,7,8,9-tetrahydro-5H-pyrimido[4,5-b]indol-4-yl)amino]phenyl}phosphinate]",19700
4,"CCOc1cc(Cl)ccc1Nc1ncnc2[nH]c3c(c12)CC(C(=O)NCCCS(C)(=O)=O)CC3 (racemic) [Example 165, (RS)-4-[(4-Chloro-2-ethoxyphenyl)amino]-N-[3-(methylsulfonyl)propyl]-6,7,8,9-tetrahydro-5H-pyrimido[4,5-b]indole-6-carboxamide]",86
5,"CC(C)Oc1cc(F)ccc1Nc1ncnc2[nH]c3c(c12)CC(F)(F)CC3 [Example 9, 6,6-Difluoro-N-(4-fluoro-2-isopropoxyphenyl)-6,7,8,9-tetrahydro-5H-pyrimido[4,5-b]indol-4-amine]",85
6,"CS(=O)(=O)CCCNC(=O)C1CCc2[nH]c3ncnc(Nc4ccc(Cl)c(Cl)c4)c3c2C1 (racemic) [Example 166, (RS)-4-[(3,4-Dichlorophenyl)amino]-N-[3-(methylsulfonyl)propyl]-6,7,8,9-tetrahydro-5H-pyrimido[4,5-b]indole-6-carboxamide]",45
7,COc1cc2[nH]ncc2cc1Nc1ncnc2[nH]c3c(c12)CC(F)(F)CC3 [Example 141],6
8,"CCNC(=O)C1CCc2[nH]c3ncnc(Nc4ccc5[nH]ncc5c4)c3c2C1 (racemic) [Example 7, (RS)—N-Ethyl-4-(1H-indazol-5-ylamino)-6,7,8,9-tetrahydro-5H-pyrimido[4,5-b]indole-6-carboxamide]",20
9,"CS(=O)(=O)CCCNC(=O)C1CCc2[nH]c3ncnc(Nc4cccc(F)c4F)c3c2C1 (racemic) [Example 77, (RS)-4-[(2,3-Difluorophenyl)amino]-N-[3-(methylsulfonyl)propyl]-6,7,8,9-tetrahydro-5H-pyrimido[4,5-b]indole-6-carboxamide]",3630
10,"COc1cc(Cl)c(Cl)cc1Nc1ncnc2[nH]c3c(c12)CC(C(=O)O)CC3 (racemic) [Example 18, (RS)-4-[(4,5-Dichloro-2-methoxyphenyl)amino]-6,7,8,9-tetrahydro-5H-pyrimido[4,5-b]indole-6-carboxylic acid]",24
11,Nc1ccc2c(c1)CCN2c1ncnc2[nH]c3c(c12)CCCC3 [Example 113],683
12,"CS(=O)(=O)CCCNC(=O)C1CCc2[nH]c3ncnc(Nc4ccccc4OCC(F)F)c3c2C1 (racemic) [Example 152, (RS)-4-{[2-(2,2-Difluoroethoxy)phenyl]amino}-N-[3-(methylsulfonyl)propyl]-6,7,8,9-tetrahydro-5H-pyrimido[4,5-b]indole-6-carboxamide]",113
13,CC(C)Oc1ccc(Cl)cc1Nc1ncnc2[nH]c3c(c12)CCCC3 [Example 124],1740
14,"c1nc(Nc2ccc3[nH]ncc3c2)c2c3c([nH]c2n1)CCCC3 [Example 2, N-(1H-Indazol-5-yl)-6,7,8,9-tetrahydro-5H-pyrimido[4,5-b]indol-4-amine]",27
15,"COc1cc(F)ccc1Nc1ncnc2[nH]c3c(c12)CC(C(=O)NCCCS(C)(=O)=O)CC3 (racemic) [Example 37, (RS)-4-[(4-Fluoro-2-methoxyphenyl)amino]-N-[3-(methylsulfonyl)propyl]-6,7,8,9-tetrahydro-5H-pyrimido[4,5-b]indole-6-carboxamide]",145
16,"CS(=O)(=O)CCCNC(=O)C1CCc2[nH]c3ncnc(Nc4ccc(F)cc4OCCO)c3c2C1 (racemic) [Example 159, (RS)-4-{[4-Fluoro-2-(2-hydroxyethoxy)phenyl]amino}-N-[3-(methylsulfonyl)propyl]-6,7,8,9-tetrahydro-5H-pyrimido[4,5-b]indole-6-carboxamide]",36
17,"c1nc(Nc2ccc3[nH]ncc3c2)c2c3c([nH]c2n1)CCSC3 [Example 66, N-(1H-Indazol-5-yl)-5,7,8,9-tetrahydrothiopyrano[3′,4′:4,5]pyrrolo[2,3-d]pyrimidin-4-amine]",43
18,"CSc1cc2c(cc1Nc1ncnc3[nH]c4c(c13)CC(C(=O)NCCCS(C)(=O)=O)CC4)OCCO2 (racemic) [Example 65, (RS)-4-{[7-(Methylsulfanyl)-2,3-dihydro-1,4-benzodioxin-6-yl]amino}-N-[3-(methylsulfonyl)propyl]-6,7,8,9-tetrahydro-5H-pyrimido[4,5-b]indole-6-carboxamide]",13300
19,"COc1cc(F)c(Cl)cc1Nc1ncnc2[nH]c3c(c12)CC(C(=O)NCCCS(C)(=O)=O)CC3 (racemic) [Example 157, (RS)-4-[(5-Chloro-4-fluoro-2-methoxyphenyl)amino]-N-[3-(methylsulfonyl)propyl]-6,7,8,9-tetrahydro-5H-pyrimido[4,5-b]indole-6-carboxamide]",444
20,Clc1ccc2c(c1)CCN2c1ncnc2[nH]c3c(c12)CCCC3 [Example 122],4290

# Next, values leading:
row,IC50 [nM],Structure (SMILES)
1,40,"COc1ccc(Cl)cc1Nc1ncnc2[nH]c3c(c12)CC(C(=O)NC(C)C)CC3 (racemic) [Example 224, (RS)-4-[(5-Chloro-2-methoxyphenyl)amino]-N-(propan-2-yl)-6,7,8,9-tetrahydro-5H-pyrimido[4,5-b]indole-6-carboxamide]"
2,181,"CN1CCN(C(=O)C2CCc3[nH]c4ncnc(Nc5ccccc5OC5CCCC5)c4c3C2)CC1 (racemic) [Example 192, (RS)-(4-{[2-(Cyclopentyloxy)phenyl]amino}-6,7,8,9-tetrahydro-5H-pyrimido[4,5-b]indol-6-yl)(4-methylpiperazin-1-yl)methanone]"
3,10,"CNC(=O)C1CCc2[nH]c3ncnc(Nc4cc5cn[nH]c5cc4OC)c3c2C1 (racemic) [Example 217, (RS)-4-[(6-Methoxy-1H-indazol-5-yl)amino]-N-methyl-6,7,8,9-tetrahydro-5H-pyrimido[4,5-b]indole-6-carboxamide]"
4,3600,"CCOC(=O)C1CCc2[nH]c3ncnc(N4CCc5ccccc54)c3c2C1 (racemic) [Example 173, (RS)-Ethyl 4-(2,3-dihydro-1H-indol-1-yl)-6,7,8,9-tetrahydro-5H-pyrimido[4,5-b]indole-6-carboxylate]"
5,77,"O=C(NCc1ccccc1)C1CCc2[nH]c3ncnc(Nc4ccccc4N4CCOCC4)c3c2C1 (racemic) [Example 206, (RS)—N-Benzyl-4-{[2-(morpholin-4-yl)phenyl]amino}-6,7,8,9-tetrahydro-5H-pyrimido[4,5-b]indole-6-carboxamide]"
6,25,"CN1CCN(C(=O)C2CCc3[nH]c4ncnc(Nc5ccc6[nH]c(=O)sc6c5)c4c3C2)CC1 (racemic) [Example 222, (RS)-6-({6-[(4-Methylpiperazin-1-yl)carbonyl]-6,7,8,9-tetrahydro-5H-pyrimido[4,5-b]indol-4-yl}amino)-1,3-benzothiazol-2(3H)-one]"
7,19,"COc1cc(Cl)c(Cl)cc1Nc1ncnc2[nH]c3c(c12)CC(C(=O)NC(C)C)CC3 (racemic) [Example 226, (RS)-4-[(4,5-Dichloro-2-methoxyphenyl)amino]-N-(propan-2-yl)-6,7,8,9-tetrahydro-5H-pyrimido[4,5-b]indole-6-carboxamide]"
8,171,"O=C(NC1CC1)C1CCc2[nH]c3ncnc(Nc4ccccc4OC4CCCC4)c3c2C1 (racemic) [Example 191, (RS)-4-{[2-(Cyclopentyloxy)phenyl]amino}-N-cyclopropyl-6,7,8,9-tetrahydro-5H-pyrimido[4,5-b]indole-6-carboxamide]"
9,911,"O=C(O)C1CCc2[nH]c3ncnc(Nc4ccccc4N4CCOCC4)c3c2C1 (racemic) [Example 186, (RS)-4-{[2-(Morpholin-4-yl)phenyl]amino}-6,7,8,9-tetrahydro-5H-pyrimido[4,5-b]indole-6-carboxylic acid]"
10,115,"COc1ccc(F)cc1Nc1ncnc2[nH]c3c(c12)CC(C(=O)N1CCN(C)CC1)CC3 (racemic) [Example 196, (RS)-{4-[(5-Fluoro-2-methoxyphenyl)amino]-6,7,8,9-tetrahydro-5H-pyrimido[4,5-b]indol-6-yl}(4-methylpiperazin-1-yl)methanone]"
11,6090,"CCOC(=O)C1CCc2[nH]c3ncnc(Nc4cc(F)ccc4OC)c3c2C1 (racemic) [Example 171, (RS)-Ethyl 4-[(5-fluoro-2-methoxyphenyl)amino]-6,7,8,9-tetrahydro-5H-pyrimido[4,5-b]indole-6-carboxylate]"
12,5,"COc1cc2[nH]ncc2cc1Nc1ncnc2[nH]c3c(c12)CC(C(=O)NC(C)C)CC3 (racemic) [Example 216, (RS)-4-[(6-Methoxy-1H-indazol-5-yl)amino]-N-(propan-2-yl)-6,7,8,9-tetrahydro-5H-pyrimido[4,5-b]indole-6-carboxamide]"
13,88,"CCNC(=O)C1CCc2[nH]c3ncnc(Nc4ccccc4OC4CCCC4)c3c2C1 (racemic) [Example 190, (RS)-4-{[2-(Cyclopentyloxy)phenyl]amino}-N-ethyl-6,7,8,9-tetrahydro-5H-pyrimido[4,5-b]indole-6-carboxamide]"
14,710,"CN(C)C(=O)C1CCc2[nH]c3ncnc(Nc4ccccc4OC4CCCC4)c3c2C1 (racemic) [Example 188, (RS)-4-{[2-(Cyclopentyloxy)phenyl]amino}-N,N-dimethyl-6,7,8,9-tetrahydro-5H-pyrimido[4,5-b]indole-6-carboxamide]"
